Experimental data: patent publication US4559338A, “Soluble quinazolino-1,4-benzodiazepin-5,13-dione derivatives” (Merck & Co., Inc., priority 1985, dated 1985)
pIC50: −log10 of the molar value. In brackets after ≈: the same amount, converted by molar mass. Counter-ions that a name gives are not always drawn. Like-named read-outs stand apart in the source and are kept apart here. Where a SMILES comes first, the peptide text is derived from it. [ ]: non-standard residue; d: D form. The star is where a group is joined. sY = N[C@@H](Cc1ccc(OS(=O)(=O)O)cc1)C(=O)O; Cbz = O=C(OCc1ccccc1)*; Boc = CC(C)(C)OC(=O)*

Legend:
[1] = system: CCK receptor; conditions: cited from earlier work
[2] = Solubility in deionized water and pH 7.4 phosphate buffer; type: physicochemical
[3] = target: T1, CCK receptor (pancreas) (Rattus norvegicus, UniProt P30551); experiment: CCK receptor binding (pancreas) method, 125I-CCK; design: species or system rat (male Sprague-Dawley); conditions: for pIC50: I-CCK-8 Pancreas assay, read-out: Anti-CCK Activity IC50; for effect on the 125I-CCK receptor binding assay (in words): additional protease inhibitors in assay buffer
T1 construct: The whole pancreas of a male Sprague-Dawley rat (200-350 g); from tissue; host or cells: whole pancreas of male Sprague-Dawley rat, washed membrane homogenate
T1 sequence (P30551 1-444): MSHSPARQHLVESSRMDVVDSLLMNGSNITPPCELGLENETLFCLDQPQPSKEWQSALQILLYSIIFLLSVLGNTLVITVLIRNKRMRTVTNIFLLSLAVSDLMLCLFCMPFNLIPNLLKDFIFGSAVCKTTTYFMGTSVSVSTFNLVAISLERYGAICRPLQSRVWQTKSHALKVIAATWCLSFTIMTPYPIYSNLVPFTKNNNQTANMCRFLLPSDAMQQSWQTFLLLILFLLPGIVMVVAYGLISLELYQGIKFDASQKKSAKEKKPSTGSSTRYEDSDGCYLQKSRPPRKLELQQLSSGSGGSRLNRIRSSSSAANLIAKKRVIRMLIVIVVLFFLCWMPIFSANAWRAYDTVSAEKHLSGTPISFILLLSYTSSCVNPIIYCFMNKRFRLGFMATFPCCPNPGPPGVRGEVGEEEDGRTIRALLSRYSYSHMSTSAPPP
Method: Screening of the novel compounds according to the present invention to determine biological activity and obtain an IC50 value for them, in order to identify significant CCK-antagonism, may be accomplished using an ^125 I-CCK receptor binding assay and in vitro isolated tissue preparations. These tests involve the following:
CCK receptor binding (pancreas) method
[…] (J. Biol. Chem., 254, 9349-9351, 1979). Receptor binding is performed according to Innis and Snyder (Proc. Natl. Acad. Sci., 77, 6917-6921, 1980), with the minor modification of adding the additional protease inhibitors, phenyl-methane sulfonyl fluoride and o-phenanthroline, which have no effect on the ^125 I-CCK receptor binding assay.
The whole pancreas of a male Sprague-Dawley rat (200-350 g), which has been sacrificed by decapitation, is dissected free of fat tissue and homogenized in 20 volumes of ice-cold 50 mM Tris HCl (pH 7.7 at 25° C.) with a Brinkman Polytron PT-10. The homogenates are centrifuged at 48,000 g for 10 minutes, then the resulting pellets are resuspended in Tris Buffer, centrifuged as above, and resuspended in 200 volumes of binding assay buffer (50 mM Tris HCl, pH 7.7 at 25° C., 5 mM dithiothreitol, 0.1 mM bacitracin, 1.2 mM phenylmethane sulfonyl fluoride and 0.5 mM o-phenanthroline).
For the binding assay, 25 μl of buffer (for total binding), or unlabeled CCK-8 sulfate sufficient to give a final concentration of 1 μM of CCK-8 (for nonspecific binding), or the compounds of the formula of the compounds according to the instant invention ([…]), are added to 450 μl of the membrane suspensions in microfuge tubes. All assays are run in duplicate or triplicate, and the reaction mixtures are incubated at 37° C. for 30 minutes and centrifuged in a Beckman Microfuge (4 minutes) immediately after adding 1 ml of ice-cold incubation buffer. The supernatant is aspirated and discarded, and the pellets are counted with a Beckman Gamma 5000.
The compounds of Examples 1-9 were tested for solubility in deionized water and pH 7.4 phosphate buffer and as CCK-antagonists (pancreas assay) with the following results: […]

[4] = Solubility / stability and absorption stated in the text (no method described); type: physicochemical; conditions: white powder
[5] = compound of the earlier filing U.S. Pat. No. 4,530,790; cited from earlier work
[6] = deionized water, water, H2O (deionized water), read-out: Solubility
[7] = phosphate buffer, pH 7.4, aqueous buffer, pH 7.4 Buffer, read-out: Solubility

## CSCC[C@H](NC(=O)OC(C)(C)C)C(=O)N[C@@H](CC(=O)O)C(=O)N[C@@H](Cc1ccccc1)C(N)=O [Boc-Met-Asp-Phe-NH2] (Boc-Met-Asp-Phe-NH2)
[1]
  CCK-antagonist activity (in words): can function as CCK-antagonists

## CSCC[C@H](NC(=O)[C@H](Cc1ccc(OS(=O)(=O)O)cc1)NC(=O)OCc1ccccc1)C(=O)NCC(=O)N[C@@H](Cc1c[nH]c2ccccc12)C(=O)N[C@@H](CCSC)C(=O)N[C@@H](CC(=O)O)C(N)=O [Cbz-Tyr(SO3 H)-Met-Gly-Trp-Met-Asp-NH2] (Cbz-[sY]MGWMD-NH2)
[1]
  CCK-antagonist activity (in words): can function as CCK-antagonists

## CC(C)C[C@H]1C(=O)N2c3ccccc3[C@@](O)(C[C@@H]3NC(=O)c4ccccc4-n4c3nc3ccccc3c4=O)[C@H]2N1C(=O)CCC(=O)O [Example 1, 2,3,9,9Aα-tetrahydro-9α-hydroxy-2-(2-methylpropyl)-γ,3-dioxo-9-(5,6,7,13-tetrahydro-5,13-dioxoquinazolino(3,2-A)-1,4-benzodiazepin-7-yl)-1H-imidazo(1,2-A)indole-1-butanoic acid]
[2]; [6]
  Solubility: 280 µg/mL (≈ 0.44 mM)
[2]; [7]
  Solubility: 9500 µg/mL (≈ 14.9 mM)
[3]
  pIC50: 3.64

## CC(C)CC1C(=O)N2c3ccccc3C(O)(C3NC(=O)c4ccccc4-n4c3nc3ccccc3c4=O)C2N1C(=O)CCC(=O)[O-].[Na+] (stereo not drawn) [Example 2, sodium 2,3,9,9Aα-tetrahydro-9α-hydroxy-2-(2-methylpropyl)-γ,3-dioxo-9-(5,6,7,13-tetrahydro-5,13-dioxoquinazolino(3,2-A)-1,4-benzodiazepin-7-yl)-1H-imidazo(1,2-A)indole-1-butanoate]
[2]; H2O (deionized water)
  Solubility: 72000 µg/mL
[3]
  pIC50: 4.57

## CC(C)C[C@H]1C(=O)N2c3ccccc3[C@@](O)(C[C@@H]3NC(=O)c4ccccc4-n4c3nc3ccccc3c4=O)[C@H]2N1C(=O)[C@@H](N)CCCCN [Example 3, dihydrochloride]
[3]
  pIC50: 5.42
[4]
  water-soluble (in words): water-soluble

## CC(C)C[C@H]1C(=O)N2c3ccccc3[C@@](O)(C[C@@H]3NC(=O)c4ccccc4N4C(=O)c5ccccc5NC34)[C@H]2N1C(=O)CCC(=O)O (stereo partly drawn) [Example 4, 9-(5,6,7,7A,8,13-hexahydro-5,13-dioxoquinazolino(3,2-A)-1,4-benzodiazepin-7-yl)-2,3,9,9A-tetrahydro-9α-hydroxy-2-(2-methylpropyl)-γ,3-dioxo-1H-imidazo(1,2-A)indole-1-butanoic acid dihydrate]
[2]; H2O (deionized water), dihydrate
  Solubility: 540 µg/mL
[2]; [7]
  Solubility: 10800 µg/mL
[3]
  pIC50: 5.21

## CC(C)C[C@H]1C(=O)N2c3ccccc3[C@@](O)(C[C@@H]3NC(=O)c4ccccc4N4C(=O)c5ccccc5NC34)[C@H]2N1C(=O)CCC(=O)O (stereo partly drawn) [Example 5, sodium 9-(5,6,7,7A,8,13-hexahydro-5,13-dioxoquinazolino(3,2-A)-1,4-benzodiazepin-7-yl)2,3,9,9A-tetrahydro-9α-hydroxy-2-(2-methylpropyl)-γ,3-dioxo-1H-imidazo(1,2-A)indole-1-butanoate trihydrate]
[2]; H2O (deionized water), trihydrate
  Solubility: > 8900 µg/mL
[3]
  pIC50: 5.77

## CC(C)C[C@H]1C(=O)N2c3ccccc3[C@@](O)(C[C@@H]3NC(=O)c4ccccc4-n4c3nc3ccccc3c4=O)[C@H]2N1C(=O)[C@@H](N)CCCNC(=O)OCc1ccccc1 [Example 6, 1,2,9,9Aα-tetrahydro-9α-hydroxy-1-[2-amino-5-((phenylmethoxy)carbonyl)aminopentanoyl]-2-(2-methylpropyl)-9-[(5,6,7,13-tetrahydro-5,13-dioxoquinazolino(3,2-A)-1,4-benzodiazepin-7-yl)methyl]-3H-imidazo(1,2-A)indol-3-one hydrochloride]
[2]; [6]
  Solubility: 240 µg/mL
[3]
  pIC50: 5.74

## CC(C)C[C@H]1C(=O)N2c3ccccc3[C@@](O)(C[C@@H]3NC(=O)c4ccccc4N4C(=O)c5ccccc5NC34)[C@H]2N1CC(=O)O (stereo partly drawn) [Example 7, 7β-[(1-carboxymethyl-2,3,9,9Aα-tetrahydro-9α-hydroxy-2-(2-methylpropyl)-3-oxo-1H-imidazo(1,2-A)indol-9-yl)methyl]-6,7,7A-8-tetrahydro-5H,13H-quinazolino(3,2-A)-1,4-benzodiazepin-5H,13-dione solvate]
[2]; H2O (deionized water)
  Solubility: 10500 µg/mL
[3]
  pIC50: 5.85

## CC(C)C[C@H]1C(=O)N2c3ccccc3[C@@](O)(C[C@@H]3NC(=O)c4ccccc4N4C(=O)c5ccccc5NC34)[C@H]2N1CC(=O)O (stereo partly drawn) [Example 8, 7β-[(1-carboxymethyl-2,3,9,9Aα-tetrahydro-9α-hydroxy-2-(2-methylpropyl)-3-oxo-1H-imidazo(1,2-A)indol-9-yl)methyl]-6,7,7A-8-tetrahydro-5H,13H-quinazolino(3,2-A)-1,4-benzodiazepin-5H,13-dione sodium salt solvate]
[2]; H2O (deionized water)
  Solubility: > 5200 µg/mL
[3]
  pIC50: 6.10

## CC(C)C[C@@H]1N[C@H]2N(C1=O)c1ccccc1[C@]2(C[C@@H]1NC(=O)c2ccccc2-n2c1nc1ccccc1c2=O)OC(=O)CCC(=O)O [Example 9, 7β-[(2,3,9,9Aα-tetrahydro-9α-(3-carboxy-1-oxopropoxy)-2-(2-methylpropyl)-3-oxo-1H-imidazo(1,2-A)indol-9-yl)methyl]quinazolino(3,2-A)-1,4-benzodiazepin-5,13-(6H,7H)-dione monohydrate]
[3]
  pIC50: 4.07

## CSCC[C@H](N)C(=O)N[C@@H](CC(=O)O)C(=O)N[C@@H](Cc1ccccc1)C(N)=O [Met-Asp-Phe-NH2] (H-Met-Asp-Phe-NH2)
[1]
  CCK-antagonist activity (in words): can function as CCK-antagonists

## CCCC(=O)Nc1nc2c(ncn2[C@@H]2O[C@@H]3COP(=O)(O)O[C@H]3[C@H]2OC(=O)CCC)c(=O)[nH]1 [dibutyryl cyclic GMP]
[1]; derivatives of cyclic nucleotides, structure-function studies
  relative CCK antagonist potency within cyclic nucleotide class (in words): the most potent

## CC(C)C[C@@H]1N[C@H]2N(C1=O)c1ccccc1[C@@]2(O)C[C@@H]1NC(=O)c2ccccc2-n2c1nc1ccccc1c2=O [formula (I), 7β-((2,3,9,9Aα-tetrahydro-9α-hydroxy-2-(2-methylpropyl)-3-oxo-1H-imidazo-(1,2-A)-indol-9-yl)-methyl)quinazolino(3,2-A)(1,4) benzodiazepin-5,13-(6H,7H)dione]
[5]
  solubility in water (in words): only slightly soluble in water
[1]
  CCK-antagonist activity (in words): has been shown to be a CCK-antagonist

## c1cnc2c(c1)ccc1cccnc12 [o-phenanthroline, reference compound]
[3]
  effect on the 125I-CCK receptor binding assay (in words): no effect

## O=S(=O)(F)Cc1ccccc1 [phenyl-methane sulfonyl fluoride, reference compound]
[3]
  effect on the 125I-CCK receptor binding assay (in words): no effect
